Calls of active or inactive are those of the source. The rule behind the calls is not given here.
Tests used:
[1] = Inhibition of mouse neuroblast cell migration from subventricular zone tissue explants at 154 uM after 48 hrs relative to control; format: functional
[2] = organism: Mus musculus; experiment: Inhibition of mouse neuroblast cell migration from subventricular zone tissue explants at 12.3 uM after 48 hrs relative to control; format: functional
[3] = Inhibition of mouse neuroblast cell migration from subventricular zone tissue explants at 123 uM after 48 hrs relative to control; format: functional
[4] = organism: Mus musculus; experiment: Inhibition of mouse neuroblast cell migration from subventricular zone tissue explants at 13.9 uM after 48 hrs relative to control; format: functional
[5] = Inhibition of mouse neuroblast cell migration from subventricular zone tissue explants at 139 uM after 48 hrs relative to control; format: functional
[6] = organism: Mus musculus; experiment: (§1) Inhibition of mouse neuroblast cell migration from subventricular zone tissue explants at 63 uM after 48 hrs relative to control; format: functional
[7] = organism: Mus musculus; experiment: Inhibition of mouse neuroblast cell migration from subventricular zone tissue explants at 67 uM after 48 hrs relative to control; format: functional
[8] = organism: Mus musculus; experiment: Inhibition of mouse neuroblast cell migration from subventricular zone tissue explants at 22 uM after 48 hrs relative to control; format: functional
[9] = Inhibition of mouse neuroblast cell migration from subventricular zone tissue explants at 224 uM after 48 hrs relative to control; format: functional
[10] = Inhibition of mouse neuroblast cell migration from subventricular zone tissue explants at 223 uM after 48 hrs relative to control; format: functional
[11] = Inhibition of mouse neuroblast cell migration from subventricular zone tissue explants at 34 uM after 48 hrs relative to control; format: functional
[12] = organism: Mus musculus; experiment: Reversal of inhibition of mouse neuroblast cell migration from subventricular zone tissue explants in presence of PR21; format: functional
[13] = Inhibition of mouse neuroblast cell migration from subventricular zone tissue explants at 68 uM after 48 hrs relative to control; format: functional
[14] = organism: Mus musculus; experiment: Inhibition of mouse neuroblast cell migration from subventricular zone tissue explants at 6.8 uM after 48 hrs relative to control; format: functional
[15] = organism: Mus musculus; experiment: Inhibition of mouse neuroblast cell migration from subventricular zone tissue explants after 24 hrs; format: functional
[16] = organism: Mus musculus; experiment: Inhibition of PR21-stimulated mouse neuroblast cell migration from subventricular zone tissue explants after 24 hrs; format: functional
[17] = Inhibition of mouse neuroblast cell migration from subventricular zone tissue explants at 250 uM after 48 hrs relative to control
[18] = as §1; format: functional
[19] = organism: Mus musculus; experiment: Inhibition of mouse neuroblast cell migration from subventricular zone tissue explants at 100 uM after 48 hrs relative to control; format: functional

Q: Which inhibition at 154 µM [1] does the source give for `O=C(NCCCCCCNC(=O)c1ccccc1)c1ccccc1` here?
A: 50%

Q: Which results are given for `c1ccc(CNCCSSCCNCc2ccccc2)cc1`?
A: Activity [2]: inactive; inhibition at 123 µM [3]: 100%

Q: For `O=C(NCCSSCCNC(=O)c1ccccc1)c1ccccc1`, which Activity [4] is on record?
A: inactive

Q: What about the inhibition at 139 µM [5] of the same molecule?
A: 100%

Q: Which Activity [6] does the source give for `C1CNCCNCCCN(CC2CCC(CN3CCCNCCNCCCNCC3)CC2)CCNC1` (configuration not stated) here?
A: inactive

Q: Which Activity [7] does the source give for `O=C(c1ccc(C(=O)N2CCCNCCNCCCNCC2)cc1)N1CCCNCCNCCCNCC1` here?
A: inactive

Q: For `c1cc(CN2CCCNCCNCCCNCC2)ccc1CN1CCCNCCNCCCNCC1`, which Activity [6] is on record?
A: inactive

Q: With `C1CNCCNCCNCCN1` as the molecule, how does the Activity [8] read?
A: inactive

Q: What about the inhibition at 224 µM [9] of the same molecule?
A: 19%

Q: With `NCCSSCCN` [CYSTAMINE] as the molecule, how does the inhibition at 223 µM [10] read?
A: 33%

Q: With `COc1ccccc1CNCCCCCCNCCSSCCNCCCCCCNCc1ccccc1OC` [BENEXTRAMINE] as the molecule, how does the inhibition at 34 µM [11] read?
A: 45%

Q: And the Activity [12]?
A: Active

Q: And the inhibition at 68 µM [13]?
A: 100%

Q: And the Activity [14]?
A: inactive

Q: And the Activity [15]?
A: Active

Q: What about the Activity [16] of the same molecule?
A: Active

Q: For `c1ccc(CN2CCCNCCNCCCNCC2)c(CN2CCCNCCNCCCNCC2)c1`, which Activity [6] is on record?
A: inactive

Q: Which inhibition at 250 µM [17] does the source give for `C1CNCCNCCCNCCNC1` here?
A: 20%

Q: With `c1cc(CN2CCCNCCNCCCNCC2)cc(CN2CCCNCCNCCCNCC2)c1` as the molecule, how does the inhibition at 63 µM [18] read?
A: 10%

Q: Which Activity [19] does the source give for `CC(CNCCCCCN)SSC(C)CNCCCCCN` (configuration not stated) here?
A: inactive

Q: With `C1CNCCNCCCN(CCCCN2CCCNCCNCCCNCC2)CCNC1` as the molecule, how does the Activity [7] read?
A: inactive

— ChEMBL document CHEMBL1142280, “Discovery of new small molecules that influence neuroblast cell migration from the subventricular zone” (2008)
